The Kd is the free concentration of one partner at which half of the binding sites on the other are occupied at equilibrium, for simple one-to-one binding.

Assay [1] concerns the target T1, HaPhy (Hafnia alvei phytase) (Hafnia alvei, UniProt H9TUK5).
T1 construct: gene phyA; recombinant mature enzyme, purified, residues 1-416; expression details only in SI; monomer in the asymmetric unit; four disulphides
T1 sequence (H9TUK5 34-446): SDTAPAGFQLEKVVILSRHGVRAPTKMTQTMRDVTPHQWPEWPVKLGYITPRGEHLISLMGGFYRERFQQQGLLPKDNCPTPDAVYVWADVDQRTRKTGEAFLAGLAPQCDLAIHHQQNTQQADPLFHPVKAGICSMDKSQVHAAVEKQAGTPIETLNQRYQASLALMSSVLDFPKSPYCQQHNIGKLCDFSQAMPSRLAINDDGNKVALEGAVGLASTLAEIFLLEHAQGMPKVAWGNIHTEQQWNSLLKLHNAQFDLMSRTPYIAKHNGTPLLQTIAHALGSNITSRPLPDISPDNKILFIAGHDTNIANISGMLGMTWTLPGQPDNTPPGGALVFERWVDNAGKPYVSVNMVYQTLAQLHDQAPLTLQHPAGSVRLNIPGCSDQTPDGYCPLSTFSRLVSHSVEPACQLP
The experiment in a line: X-ray crystal structure of the complex, […] Å. Format: binding. The settings on record: 0.2 M potassium/sodium tartrate, pH 8.4-9.1 (from crystallisation solution); active site; second tartrate at occupancy 0.25.

The target of assay [2] is T1, HaPhy (Hafnia alvei phytase). The experiment in a line: isothermal titration calorimetry. Format: binding.
Assay [3] concerns the target T2, YkPhy (Yersinia kristensenii phytase) (Yersinia kristensenii, UniProt H9TUK6).
T2 construct: gene phyA
The settings on record: SPGS buffer pH 5.0 (phosphate from crystallisation solution); two Pi in the active site.

T2 sequence (H9TUK6 entry or part of it): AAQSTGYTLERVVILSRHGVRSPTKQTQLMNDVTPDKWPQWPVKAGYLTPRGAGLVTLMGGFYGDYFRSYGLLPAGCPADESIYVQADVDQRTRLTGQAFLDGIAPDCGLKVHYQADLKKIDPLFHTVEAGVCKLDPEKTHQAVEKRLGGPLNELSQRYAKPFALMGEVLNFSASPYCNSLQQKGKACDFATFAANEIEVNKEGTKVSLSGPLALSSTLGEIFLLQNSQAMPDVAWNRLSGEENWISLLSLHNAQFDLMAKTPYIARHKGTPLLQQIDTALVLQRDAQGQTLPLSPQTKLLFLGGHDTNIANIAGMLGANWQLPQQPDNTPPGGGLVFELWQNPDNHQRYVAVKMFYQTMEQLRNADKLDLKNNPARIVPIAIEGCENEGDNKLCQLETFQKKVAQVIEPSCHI

Regarding `O=C(O)C(O)C(O)C(=O)O` (stereo not drawn) [L(+)-tartrate], the “X-ray crystal structure of the complex, 1.60 Å” value in assay [1] was “The active site contained a tartrate molecule, a component of the crystallisation buffer”.

Take `O=S(=O)(O)O[C@H]1[C@H](OS(=O)(=O)O)[C@@H](OS(=O)(=O)O)[C@H](OS(=O)(=O)O)[C@@H](OS(=O)(=O)O)[C@H]1OS(=O)(=O)O` [MIHS, myo-inositol hexakissulphate]: in assay [2], the Kd was approximately 160 nM.

For the compound `O=P(O)(O)O` [Pi, phosphate], the “X-ray crystal structure of the complex, 1.67 Å” value in assay [3] is “Each monomer contains two Pi molecules in its active site”.

The values are drawn from publication PMC3669009, “Degradation of Phytate by the 6-Phytase from Hafnia alvei: A Combined Structural and Solution Study” (PLoS ONE, 2013).
